Molecules are shown by their SMILES.

This assay concerns the target T1, human TLR9 (Homo sapiens, UniProt Q9NR96).
T1 sequence (Q9NR96 26-1032): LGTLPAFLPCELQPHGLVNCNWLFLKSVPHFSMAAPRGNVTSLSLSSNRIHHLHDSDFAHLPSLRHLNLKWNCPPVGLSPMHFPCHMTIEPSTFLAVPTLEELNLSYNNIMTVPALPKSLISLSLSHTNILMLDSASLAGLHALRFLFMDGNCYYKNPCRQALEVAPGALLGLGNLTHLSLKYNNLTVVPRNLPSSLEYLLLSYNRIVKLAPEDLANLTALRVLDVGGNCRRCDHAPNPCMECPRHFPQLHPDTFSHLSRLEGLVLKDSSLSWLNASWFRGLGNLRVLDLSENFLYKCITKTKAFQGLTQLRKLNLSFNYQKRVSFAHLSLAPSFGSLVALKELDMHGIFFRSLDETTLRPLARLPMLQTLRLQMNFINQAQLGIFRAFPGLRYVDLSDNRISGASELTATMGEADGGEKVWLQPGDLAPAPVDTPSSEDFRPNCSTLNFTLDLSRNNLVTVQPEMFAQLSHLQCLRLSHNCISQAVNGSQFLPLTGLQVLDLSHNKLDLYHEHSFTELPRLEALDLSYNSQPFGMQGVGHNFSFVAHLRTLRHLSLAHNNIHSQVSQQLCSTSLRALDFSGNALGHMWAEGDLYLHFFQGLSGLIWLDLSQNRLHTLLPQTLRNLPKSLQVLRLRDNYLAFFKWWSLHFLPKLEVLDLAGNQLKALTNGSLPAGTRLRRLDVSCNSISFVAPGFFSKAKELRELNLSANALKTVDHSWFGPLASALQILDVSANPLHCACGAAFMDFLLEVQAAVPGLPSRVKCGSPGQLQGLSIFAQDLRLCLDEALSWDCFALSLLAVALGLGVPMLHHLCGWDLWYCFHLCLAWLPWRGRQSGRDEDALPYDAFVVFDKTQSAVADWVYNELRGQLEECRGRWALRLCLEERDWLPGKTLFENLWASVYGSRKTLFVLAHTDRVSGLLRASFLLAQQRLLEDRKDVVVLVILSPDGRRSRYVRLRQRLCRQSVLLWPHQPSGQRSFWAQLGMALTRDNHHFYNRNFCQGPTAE
Put plainly: HEK293-Blue-hTLR-9 cells assay (SEAP reporter, ODN2006 stimulation). The assay is classed as cell-based. Conditions: HEK293-Blue-hTLR9 cells, ODN2006 ligand, 20 hrs incubation. Summed up:
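HEK293-Blue-hTLR9 cells with NF-κB/AP-1-driven SEAP reporter, stimulated with ODN2006 in presence of serially diluted compounds (1% DMSO) for 20 h at 37 °C. Supernatant SEAP measured with QUANTI-Blue after 2 h at 37 °C, absorbance 620–655 nm.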
The compound `C[C@H]1CN(C[C@H]2CN(c3ccc(C#N)c4nccnc34)C[C@@H]2C(F)(F)F)CC[C@H]1N` [Example 72, 8-[(3S,4R)-3-[[(3S,4R)-4-amino-3-methyl-1-piperidyl]methyl]-4-(trifluoromethyl)pyrrolidin-1-yl]quinoxaline-5-carbonitrile] yielded an IC50 of 506 nM.
To `N#Cc1ccc(N2C[C@H](CN3CC4CCC(C3)C4N)[C@@H](C(F)(F)F)C2)c2nccnc12` (stereo partly drawn) [Example 73, 8-[(3S,4R)-3-[(8-amino-3-azabicyclo[3.2.1]octan-3-yl)methyl]-4-(trifluoromethyl)pyrrolidin-1-yl]quinoxaline-5-carbonitrile] belongs 1190 nM; to `N#Cc1ccc(N2C[C@H](CN3CCC(CN)CC3)[C@@H](C(F)(F)F)C2)c2nccnc12` [Example 74, 8-[(3S,4R)-3-[[4-(aminomethyl)-1-piperidyl]methyl]-4-(trifluoromethyl)pyrrolidin-1-yl]quinoxaline-5-carbonitrile], 325 nM; to `CC1(CN)CCCN(C[C@H]2CN(c3ccc(C#N)c4nccnc34)C[C@@H]2C(F)(F)F)C1` (stereo partly drawn) [Example 75, 8-[(3S,4R)-3-[[3-(aminomethyl)-3-methyl-1-piperidyl]methyl]-4-(trifluoromethyl)pyrrolidin-1-yl]quinoxaline-5-carbonitrile], 767 nM.
Regarding `N#Cc1ccc(N2C[C@H](CN3CC4CNCC4C3)[C@@H](C(F)(F)F)C2)c2nccnc12` (stereo partly drawn) [Example 76, 8-[(3S,4R)-3-(2,3,3a,4,6,6a-hexahydro-1H-pyrrolo[3,4-c]pyrrol-5-ylmethyl)-4-(trifluoromethyl)pyrrolidin-1-yl]quinoxaline-5-carbonitrile], the IC50 worked out at 485 nM.
For `N#Cc1ccc(N2C[C@H](CN3CC4CCC3CN4)[C@@H](C(F)(F)F)C2)c2nccnc12` (stereo partly drawn) [Example 77, 8-[(3S,4R)-3-(2,5-diazabicyclo[2.2.2]octan-2-ylmethyl)-4-(trifluoromethyl)pyrrolidin-1-yl]quinoxaline-5-carbonitrile], inhibition was half-maximal at 2340 nM (IC50).
Then `N#Cc1ccc(N2C[C@H](CN3CCCC(F)(CN)C3)[C@@H](C(F)(F)F)C2)c2nccnc12` (stereo partly drawn) [Example 78, 8-[(3S,4R)-3-[[3-(aminomethyl)-3-fluoro-1-piperidyl]methyl]-4-(trifluoromethyl)pyrrolidin-1-yl]quinoxaline-5-carbonitrile], with 1920 nM.
Then `N#Cc1ccc(N2C[C@H](CN3CCC(CCN)CC3)[C@@H](C(F)(F)F)C2)c2nccnc12` [Example 79, 8-[(3S,4R)-3-[[4-(2-aminoethyl)-1-piperidyl]methyl]-4-(trifluoromethyl)pyrrolidin-1-yl]quinoxaline-5-carbonitrile], with 248 nM; and `CN(C)C1CCN(C[C@H]2CN(c3ccc(C#N)c4nccnc34)C[C@@H]2C(F)(F)F)CC1` [Example 80, 8-[(3S,4R)-3-[[4-(dimethylamino)-1-piperidyl]methyl]-4-(trifluoromethyl)pyrrolidin-1-yl]quinoxaline-5-carbonitrile], with 706 nM; and `CNCC1CCN(C[C@H]2CN(c3ccc(C#N)c4nccnc34)C[C@@H]2C(F)(F)F)CC1` [Example 81, 8-[(3S,4R)-3-[[4-(methylaminomethyl)-1-piperidyl]methyl]-4-(trifluoromethyl)pyrrolidin-1-yl]quinoxaline-5-carbonitrile], with 218 nM.
Then `CN(C)C[C@@H]1CCN(C[C@H]2CN(c3ccc(C#N)c4nccnc34)C[C@@H]2C(F)(F)F)C1` [Example 82, 8-[(3S,4R)-3-[[(3S)-3-[(dimethylamino)methyl]pyrrolidin-1-yl]methyl]-4-(trifluoromethyl)pyrrolidin-1-yl]quinoxaline-5-carbonitrile], with 304 nM.

These data come from patent US20210253575A1, “PYRROLIDINE AMINE COMPOUNDS FOR THE TREATMENT OF AUTOIMMUNE DISEASE” (Hoffmann-La Roche Inc., priority 2018, published 2021).
